Reference: patent US9526717B2, “Composition for treating immune diseases containing daurinol compound as active ingredient” (THE CATHOLIC UNIVERSITY OF KOREA INDUSTRY-ACADEMIC …, priority 2013, dated 2016)

Columns and labels:
[1] = test system: bone marrow macrophages (BMM); assay: Inhibitory effect on the differentiation of osteoclasts (TRAP+ multinucleate cells); type: cell-based, mouse; conditions: RANKL 50 ng/mL, M-CSF 30 ng/mL, 4 days
Excerpt: ICR mice (6 to 9 week-old male) were subjected to cervical dislocation and disinfected with 70% ethanol. The skin in the tibia area was cut off and the muscles attached thereto were detached. The distal center of tibia was cut off and tibia was ablated by dislocating patella. Both ends of the bone were slightly cut off and a 25G injection needle was indwelled therein on one end and α-MEM was flowed thereon and bone marrow cells were thereby collected into a test tube. After centrifugation, the resultant was suspended in α-MEM and red blood cells were removed by adding two volumes of Gey's solution. After centrifugation, the resultant was resuspended in α-MEM including 10% FBS and cultured to be used.
The cultured bone marrow cells were cultured overnight with macrophage colony stimulating factor (“M-CSF”, hereinafter) (10 ng/mL), and the suspension cells were cultured further with M-CSF (30 ng/mL) for 3 days, and thereby bone marrow macrophages (“BMM”) were formed. The thus-formed BMM was collected and cultured in 1×10^5 cells/well in the presence of receptor activator of NF-κB ligand (RANKL) (50 ng/mL), which is an osteoclast differentiation factor, and M-CSF (30 ng/mL) for 4 days. […] The resultant was observed under a microscope and TRAP+ cells having three or more nuclei were determined as multinucleate osteoclasts.

splenocytes cell line = assay: MTT assay for cytotoxicity; type: cell-based; conditions: splenocytes cell line 2×10^5 cells, 96-well plate
Method: Additionally, MTT assay was performed for the observation of cytotoxicity by daurinol treatment. To this end, splenocytes cell line (2×10^5 cells) were plated on a 96-well plate, and daurinol was treated with MTT reagent and wrapped with aluminum foil, and reacted at 37° C. for 4 hours. After 4 hours, the crystals formed were dissolved in DMSO and the absorbance was measured using the ELISA reader.

[2] = test system: splenocytes of an animal model with obesity-derived rheumatoid arthritis; assay: IL-17 ELISA in splenocytes of animal model with obesity arthritis; type: cell-based; conditions: daurinol 1 μM and 5 μM, anti-CD3 0.5 μg/mL
Method: The splenocytes of an animal model with obesity-derived rheumatoid arthritis were treated with daurinol (1 μM and 5 μM) and anti-CD3 (0.5 μg/mL), and IL-17, the inflammatory cytokine expressed thereafter, was evaluated via ELISA assay.

splenocyte cell line = assay: IL-17 secretion of anti-CD3 treated splenocyte cell line (sandwich ELISA); type: cell-based; conditions: anti-CD3 antibodies 0.5 μg/mL
Method: For this purpose, a splenocyte cell line was treated with anti-CD3 antibodies (0.5 μg/mL) to induce the secretion of IL-17, or treated with LPS (100 ng/mL) to induce the secretion of TNF-α. […] The resultant was reacted in a 96-well plate with monoclonal anti-IL-17 or anti-TNF-α (2 μg/mL) at 4° C. overnight, and upon reaction, the non-specific binding was blocked using a blocking solution (1% BSA/PBST). IL-17 recombinant or TNF-α in a half amount was continuously diluted and used as standards, and the supernatant of cell culture was reacted at room temperature for 2 hours. Then, the biotinylated anti-IL-17 was reacted at room temperature for 2 hours, washed 4 times, and added with ExtraAvidin-alkaline phosphatase conjugate after dilution, and reacted at room temperature for 2 hours. Subsequently, PNPP/DEA solution was added thereto to fix color and absorbance was measured at 405 nm.

VEGF = VEGF expression in human large intestine cell line HT-29; type: cell-based
[3] = test system: animal model with inflammatory bowel disease (IBD); assay: H&E staining and TNF-α expression of large intestine tissues in IBD animal model; type: in vivo, mouse; conditions: DSS-induced IBD mice, daurinol treated
Excerpt: (§1) For the confirmation of the effect of the daurinol compound of the present invention on the treatment of inflammatory bowel disease, the present inventors first constructed an animal model with induced inflammatory bowel disease. For the experimental model, C57BL/6(H-2kb) mice were used. For the construction of an animal model with induced inflammatory bowel disease, the mice were fed with 3.5% dextran sulfate sodium (DSS) and water for a week, thereby preparing an animal model with induced inflammatory bowel disease. The present inventors divided the experimental animals into a normal control group, a group of an animal model with induced inflammatory bowel disease, and a group of an animal model with induced inflammatory bowel disease treated with daurinol or a TNF-α inhibitor, and the group treated with daurinol was administered orally and intrarectally with daurinol (20 mg/kg) from the 4th day after the induction with the disease. Additionally, for the confirmation of the histological findings of the tissues in the large intestine and the expression of inflammatory cytokines, a hematoxylin and eosin (H&E) staining was performed to examine whether the damage of the tissues in the large intestine was reduced by the daurinol treatment.

[4] = test system: animal model with inflammatory bowel disease; assay: Expression of inflammatory cytokines in the tissues of the large intestine of IBD model; type: in vivo, mouse; conditions: daurinol treated
Excerpt: as §1, with “disease.” for “disease. Additionally, for the confirmation of the histological findings of the tissues in the large intestine and the expression of inflammatory cytokines, a hematoxylin and eosin (H&E) staining was performed to examine whether the damage of the tissues in the large intestine was reduced by the daurinol treatment.”

[5] = test system: phospho STAT3 (p705, p′727); assay: Western blot of phospho STAT3 in CD4+T cells; type: cell-based; conditions: CD4+T cells of normal mouse, daurinol 5 μM, anti-CD3 0.5 μg/mL, 3 days
Method: For the observation of changes in intracellular cell signaling factors treated with daurinol, a western blot analysis was performed. For this purpose, CD4+T cells were isolated from a normal mouse, treated with daurinol (5 μM) in a condition already treated with anti-CD3 antibodies (0.5 μg/mL), cultured for 3 days, and the cells were dissolved and proteins were extracted therefrom. Then, the extracted proteins were subjected to SDS-PAGE electrophoresis, and the proteins were electrically transferred onto a nitrocellulose membrane, subjected to a blocking reaction with 5% skim milk for 1 hour, reacted by attaching primary antibodies to STAT3, STAT3p705, STAT3p727, and phospho m-TOR thereto, reacting again by attaching secondary antibodies to the same, and sensitized onto a Kodak X-ray using enhanced chemilunimoecence (ECL), and thereby the protein expression levels of the genes were analyzed.

COc1cc2c(-c3ccc4c(c3)OCO4)c3c(cc2cc1O)COC3=O [daurinol]
differentiation of osteoclasts reduced by (number of TRAP+ multinucleate cells) ([1]; daurinol 2 μM): ≥ 60%
differentiation of osteoclasts (number of TRAP+ multinucleate cells) ([1]; daurinol 10 μM): no differentiation of osteoclasts was observed
cytotoxicity according to the concentration of daurinol (MTT) (splenocytes cell line): no significant cytotoxicity
expression of IL-17 (ELISA) [2]: inhibits the expression of IL-17 in a dose-dependent manner
secretion of IL-17 decreased to (splenocyte cell line; 2 μM daurinol): 50%
secretion of IL-17 (splenocyte cell line; 20 μM daurinol): no secretion was observed
activity of VEGF, analysis in terms of inhibition (%) (VEGF): significantly inhibits the activity of VEGF
inhibitory effect against the VEGF expression, compared to comparators (VEGF): greater inhibitory effect against the VEGF expression compared to those of TNF-α inhibitor and merformin
damage of the tissues in the large intestine (H&E staining) [3]: decrease in the intestinal tissue damage
expression of TNF-α in large intestine tissues [3]: significantly inhibits
expression of IL-1b in the tissues of the large intestine [4]: significantly inhibit
expression of IL-6 in the tissues of the large intestine [4]: significantly inhibit
expression of IL-8 in the tissues of the large intestine [4]: significantly inhibit
expression of IL-17 in the tissues of the large intestine [4]: significantly inhibit
expression of TNF-α in the tissues of the large intestine [4]: significantly inhibit
expression of phospho STAT3 (p705, p′727) [5]: significant decrease
